Measurements published in BindingDB's records for doi:10.1074/jbc.M113.510974 (Albert Einstein College of Medicine, 2013).
pKi: −log10 of the molar value.

Tests used:
Sulfotransferase 1A1 = Sulfotransferase 1A1 (Homo sapiens, UniProt P50225); experiment: Amoxapine and Protriptyline Inhibition Assay; conditions: pH 7.5; 2 °C
Protocol: (§1) Sulfation of PnP was monitored optically at λ = 415 nm (ε415 = 10.6 mM-1 cm-1 at pH 7.5 [Whittemore et al., Biochemistry, 24:2477-2482).

Sulfotransferase 2A1 = molecular target: T1, Sulfotransferase 2A1 (Homo sapiens, UniProt Q06520); experiment: Amoxapine and Protriptyline Inhibition Assay; conditions: pH 7.5; 2 °C
T1 sequence (Q06520 whole entry): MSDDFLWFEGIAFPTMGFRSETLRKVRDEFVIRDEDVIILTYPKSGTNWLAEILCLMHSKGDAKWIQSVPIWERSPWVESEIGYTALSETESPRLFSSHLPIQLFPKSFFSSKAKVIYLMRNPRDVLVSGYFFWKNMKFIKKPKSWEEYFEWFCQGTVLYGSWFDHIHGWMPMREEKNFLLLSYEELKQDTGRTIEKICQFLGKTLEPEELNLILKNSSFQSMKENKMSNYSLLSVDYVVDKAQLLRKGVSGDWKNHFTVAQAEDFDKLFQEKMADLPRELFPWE
Protocol: as §1

Chain of Sulfotransferase 1A1 (P50225 whole entry): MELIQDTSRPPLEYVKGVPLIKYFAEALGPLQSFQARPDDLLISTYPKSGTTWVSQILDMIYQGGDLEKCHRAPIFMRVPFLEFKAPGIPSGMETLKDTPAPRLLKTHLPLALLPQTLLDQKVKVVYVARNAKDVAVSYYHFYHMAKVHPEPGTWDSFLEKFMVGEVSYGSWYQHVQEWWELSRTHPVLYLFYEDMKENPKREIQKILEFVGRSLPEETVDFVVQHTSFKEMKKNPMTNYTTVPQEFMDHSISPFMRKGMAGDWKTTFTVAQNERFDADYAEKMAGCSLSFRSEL

| SMILES | pKi (Sulfotransferase 1A1) | pKi (Sulfotransferase 2A1) |
| --- | --- | --- |
| Clc1ccc2c(c1)C(N1CCNCC1)=Nc1ccccc1O2 | 4.46 | 3.90 |
| CNCCCC1c2ccccc2C=Cc2ccccc21 [3-(5H-dibenzo[a,d][7]annulen-5-yl)-N-methylpropan-1-amine] | 4.26 | 4.12 |
